Measured values reported in paper PMC4119598 (Journal of natural products, 2013).
pIC50: −log10 of the molar value.

Assays:
P. berghei LS parasites = assay: Immunofluorescence analysis; type: cell-based, Plasmodium berghei; details: 10 μM, 48 h post-infection
MtFabI = MtFabI (Mycobacterium tuberculosis, UniProt P9WGR1); assay: FabI enzyme inhibition assay MtFabI; type: biochemical, M. tuberculosis
[1] = tested on: fabp10a:DsRed2 zebrafish larvae; assay: In vivo hepatotoxicity in fabp10a:DsRed2 zebrafish larvae; set-up: species or system zebrafish (Brachydanio rerio); details: for liver phenotype (Figure 3): 6 dpf after 3 days of exposure at MTC (60.2 μM of 1, 15.5 μM of 2, 0.3 μM of 4)
BS of Plasmodium = details: read-out: BS IC50 (reported); cited from earlier work

Sequence of MtFabI (P9WGR1 whole entry, looked up): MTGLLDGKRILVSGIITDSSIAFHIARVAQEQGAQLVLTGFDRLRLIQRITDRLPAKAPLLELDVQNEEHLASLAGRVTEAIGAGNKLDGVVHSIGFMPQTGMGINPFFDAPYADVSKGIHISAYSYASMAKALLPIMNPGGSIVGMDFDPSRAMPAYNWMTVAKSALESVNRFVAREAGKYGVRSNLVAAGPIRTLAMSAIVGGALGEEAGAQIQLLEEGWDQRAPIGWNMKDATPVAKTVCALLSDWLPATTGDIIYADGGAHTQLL

| Compound | effect on size of LS parasites (IFA) (P. berghei LS parasites) | pIC50 (MtFabI) | liver phenotype (Figure 3) [1] | hepatotoxicity in zebrafish larvae ([1]; highest concentrations tested, up to and including MTC) | pIC50 (BS of Plasmodium) |
| --- | --- | --- | --- | --- | --- |
| COc1cc(C)c(C(=O)Oc2cc(C)c(C(=O)O)c(O)c2)c(O)c1 [compound 1, evernic acid] | no effect | < 3.70 | reduced liver size |  |  |
| COC(=O)/C(=C1/OC(=O)C(c2ccccc2)=C1O)c1ccccc1 [compound 2, vulpic acid] | decrease in the size of parasites | < 3.70 | enlarged liver |  |  |
| COc1cc(C(=O)O)c2c(c1C)OC(=O)c1c(C)cc(O)c(C=O)c1O2 [compound 3, psoromic acid] | no effect | < 3.70 |  |  |  |
| CC(=O)C1=C(O)C=C2Oc3c(C(C)=O)c(O)c(C)c(O)c3[C@@]2(C)C1=O [compound 4, (+)-usnic acid] | decrease in the size of parasites |  | liver with normal shape and size | no hepatotoxicity was observed |  |
| COc1cc(NC(C)CCCN)c2ncccc2c1 (stereo not drawn) [primaquine] |  |  |  |  | 5.48 to 5.85 |
